Reference: patent US6673555B1, “Methods of using SCAP antagonists” (SmithKline Beecham Corporation, priority 1999, dated 2004)

What was measured:
[1] = system: human LDL-receptor promoter; experiment: LDL-receptor promoter luciferase reporter assay in transfected HepG2 cells; type: cell-based
Description: The human LDL-receptor promoter named p-588 corresponding to nucleotide −588 to +91 relative to the major transcription site was cloned by PCR from human genomic DNA (Clonetech) using SEQ ID NO: 3 […] and SEQ ID NO: 4 […] primers. and inserted into pGL3-basic vector (Promega) at Hind-III and Nco-I sites. The sequencing was identical to published promoter (Genbank L29401). Shorter promoters were obtained by PCR sub-cloning using Kpn-I and Nar-I sites. The primer SEQ ID NO: 5 […] corresponding to luciferase coding sequence was used as reverse primer for all constructs. The following primers were used to produce respectively p-149, p-118, p-70, p-53 and p-31 promoters: SEQ ID NO: 6 […], SEQ ID NO: 7 […], SEQ ID NO: 8 […], SEQ ID NO: 9 […] and SEQ ID NO: 10 […]. A vector containing the 38 bp of the minimal promoter of adenovirus Major Late Promoter (Ham. J. et al., EMBO, 10: 2931-2940 (1991)) was produced using Bgl-II and Hind-III site in pGL3-basic. Four repeats of the SRE sequence present on the human LDL-receptor promoter were introduced in p-MLP vector using Bgl-II site, SEQ ID NO: 11 […] and complementary oligo. HepG2 cells seeded the previous day at 3 10^5 cells per well of 24 well plate were transfected with 1 μg of LDL-promoter containing vector together with p-RL-TK control vector (Promega) using Fugene 6 (Boehringer). HepG2 cells were incubated for 28 hours in the presence of SCAP antagonist and/or 25OH-cholesterol. Firefly luciferase and Renila activity were measured using Dual Luciferase Assay Kit (Promega) and Lumistar (BMG). The ratio of Firefly luciferase to Renila were used to calculate mean and S.D. of tetraplicates.
A vector containing the human LDL-receptor promoter coupled to Firefly luciferase reporter was made. A mixture of the LDL-receptor vector and control pRL-TK vector was used to transfect HepG2 cells. Cells were incubated with 25OH-cholesterol (0.2 or 1 μM) alone or in the presence (black bars) or absence (gray bars) of Example 1 (1 μM) for 28 hours before measurement of luciferase and renila activity. The ratio of luciferase activity versus renila activity was calculated and the mean and SD of triplicates were expressed as percent of control.
Shortening the LDL-receptor promoter in the same reporter vector modifies the relative luciferase activity (FIG. 3A).

HepG2 cells = experiment: Uptake of Dil-LDL by HepG2 cells; type: cell-based; settings: 0.5 μM, 24 hours, Dil-LDL 6 μg/ml for last 4 hours, FIG. 5
Method: To determine if activation of LDL-receptor promoter also translated into an increase in functional LDL receptors, an LDL uptake assay was set up. HepG2 cells seeded at 8 10^4 cells per 8 well Biocoat slides (Beckton Dickinson) were treated with SCAP antagonist or 25OH-cholesterol for 20h and then incubated with 6 μg/ml of fluorescent Dil-LDL for 4 hours. The amount of fluorescent dye that accumulated in the lysosomes was quantified by fluorescence microscopy using Axioplan-2 Zeiss microscope equipped with DXC950P video camera (Sony) and red fluorescence filters.
HepG2 cells were treated for 24 hours in the presence of 0.5 μM Example 1 or 10 μM 25OH-cholesterol. Dil-LDL (6 μg/ml) were added 4 hours before the end of the incubation. Cells were washed and observed by fluorescence microscopy using rhodamine filters and video camera with fixed settings.

[2] = system: golden Syrian hamster previously fed with a cholesterol rich diet; experiment: Lipoprotein cholesterol profile by gel filtration in cholesterol-fed hamsters (FIG. 7); type: in vivo; settings: 5 mg/kg oral once a day for 3 days
Method: (§1) The in vivo activity of SCAP antagonist was determined in the golden Syrian hamster previously fed with a cholesterol rich diet. Male Syrian golden hamsters (Janvier, France) were kept on a 12 h light-dark cycle. Animals (7 weeks age, 150 g) were fed for 2 weeks with a high cholesterol diet containing 0.2% cholesterol plus 10% coconut oil. Animals (n=5 per group) were then treated orally with vehicle, (0.5% methylcellulose, 5% Tween 80) or Example 1 at 1, 5 or 20 mg/kg in the vehicle, once a day for 3 days.
4h after the last treatment, animals were anesthetized, blood was collected and serum was prepared by centrifugation. Total cholesterol was determined using a enzymatic assay kit (Biomerieux, France). Lipoproteins were separated by ultracentrifugation using a single KBr concentration (density 1.063). Cholesterol and triglycerides associated with the upper phase (corresponding to VLDL +LDL lipoproteins) and cholesterol associated with the lower phase (corresponding to the HDL fraction) were determined using the enzymatic assays kits. Apolipoprotein B100 associated with VLDL and LDL lipoprotein fraction were analysed by SDS-PAGE and Coomassie blue staining. Lipoproteins were also separated by high-performance gel filtration chromatography with on-line colorimetric determination of cholesterol. Lipoprotein separation was performed on a single superose 6HR column (Pharmacia) with an elution buffer consisting of 10 mM tris, 1 mM EDTA and 150 mM NaCl adjusted at pH 7.4. Cholesterol was measured on line using the RTU enzymatic assay (Biomerieux). The column was calibrated using human lipoproteins and the various peaks in cholesterol profiles are designated VLDL, LDL and HDL for simplicity.
Cholesterol-fed animals were treated for 3 days with Example 1 at 1 and 20 mg/kg. […] In another experiment, lipoproteins were separated by gel filtration and cholesterol content was quantified on-line. As shown in FIG. 7 Example 1 at […] strongly reduces atherogenic particles: 79% reduction of VLDL cholesterol and 60% reduction of LDL-cholesterol.

[3] = system: hamster LDL-receptor mRNA; experiment: LDL-receptor mRNA by real-time PCR in livers of cholesterol-fed hamsters; type: in vivo, Syrian golden hamster; settings: 5 mg/kg oral once a day for 3 days, versus vehicle, FIG. 6
Method: as §1
4 hours after the last administration, animals were sacrificed and livers were immediately dropped into liquid nitrogen. Total RNA was extracted using RNAqous kit (Ambion) according to manufacturer instruction. […] The expression of the hamster LDL-receptor was determined using the following primers: SEQ ID NO: 12 […] and SEQ ID NO: 13 […]. […] Each sample was quantified in duplicates and the cycle threshold (Ct) were calculated. For each animal the difference between Ct values for the LDL-receptor and Ribosomal RNA were calculated. The quantity of LDL-receptor mRNA relative to Ribosomal RNA reference was calculated as 2^−ΔΔCt and expressed in arbitrary units.
Cholesterol-fed hamsters were treated with Example 1 (5 mg/kg) or vehicle for 3 days. LDL-receptor mRNA in the liver was quantified by real-time PCR using Ribosomal 18S RNA as internal reference.

CCOc1cc(CC)ccc1C1CCN(CCCCNC(=O)c2ccc(NC(=O)c3ccc(Cl)cc3)cc2)CC1 [Example 1, 4-(4-Chloro-benzoylamino)-N-{4-[4-(2-ethoxy-4-ethyl-phenyl)-piperidin-1-yl]-butyl}-benzamide]
LDL-receptor promoter activity on co-treatment with 25OH-cholesterol ([1]; 1 μM with 25OH-cholesterol 0.2 or 1 μM, 28 hours, HepG2, FIG. 2): can at least partially antagonise the effects of 25OH-cholesterol on SCAP | LDL-receptor promoter activity (luciferase/renila ratio) ([1]; 1 μM, 28 hours, HepG2, FIG. 2): acts as a transcriptional activators | response of minimal adenovirus Major Late promoter vector (p-MLP) ([1]; 1 μM, HepG2, FIG. 3C): fails to respond | response of p-MLP vector with 4 copies of SRE ([1]; 1 μM, HepG2, FIG. 3C): sufficient to confer the responsiveness | reporter expression from shortened LDL-receptor promoter constructs ([1]; 1 μM, HepG2, p-149 to p-31 constructs, FIG. 3B left): promote expression only for vectors possessing the SRE sequence | LDL uptake (Dil-LDL fluorescence) (HepG2 cells): markedly increased the LDL uptake | melting point: 250 °C | increase of cholesterol contained in HDL particles [2]: 25% | reduction of LDL-cholesterol [2]: 60% | reduction of VLDL cholesterol [2]: 79% | LDL-receptor mRNA in the liver [3]: increased mRNA for LDL-receptor
